Measured values as given in patent US20250127774A1, “COMPOUNDS FOR LABELLING NUCLEIC ACID AND USES THEREOF” (THE ROYAL INSTITUTION FOR THE ADVANCEMENT OF …, priority 2022, published 2025).
Where a name gives a salt, the structure may show the parent alone. Read-outs that look alike come from different tables or passages of the source. Blank lines part the entries; values can stand above or below the compound they belong to.

Columns and labels:
[1] = Photophysical properties of AO-495-tet-py before and after reaction with 5-norbornene-2 methanol; format: physicochemical; conditions: for φ: Rhodamine 6G standard; for λmax(Fluor.): excitation at 488 nm
Protocol: The absorbance and fluorescence intensity (excitation at 488 nm) of AO-495-TET-py in different solvents (water, PBS and acetonitrile) was measured in a quartz cuvette (light path 1 cm) using a SpectraMax M5 plate reader (Molecular Devices, Sunnyvale, CA, USA). For AO-495-tet-py, samples for photophysical characterization were prepared directly from stock solution (10 mM in DMSO) by gradient dilution. For reaction of AO-495-tet-py with 5-norbornene-2 methanol, 20 μL AO-495-tet-py stock solution (in DMSO) was mixed with 2 μL 5-norbornene-2 methanol (80× excess) in room temperature for 24 h to ensure full conversion. 3 μL of the reaction mixture was diluted in to the indicated solvent to make a […] solution for following photophysical characterization. Rhodamine 6G in ethanol was used as fluorescence standard (φ=0.94).

[2] = Photophysical measurements (quantum yield) of PINK and PINK-VdU-ox; format: physicochemical; conditions: excitation 488 nm, Rhodamine 6G standard; PINK in aqueous and aprotic solvents, 6 depending on the solvent used
Protocol: PINK (4) undergoes a highly fluorogenic and regioselective IEDDA reaction with VdU (5) to give “PINK-VdU-ox” (6) as a single isomer in a 76% isolated yield after 7d at 60° C. (Scheme 1). The slow rate of this non-templated reaction (Kapp=0.01 M^−1 s^−1, FIG. 5) is due to the combination of an unstrained terminal alkene and unactivated tetrazine.^[49] Over the course of the reaction, a ˜100-fold increase in fluorescence was observed (FIG. 3, c). With a quantum yield (φF)<0.2%, PINK (4) is essentially non-fluorescent in both aqueous and aprotic solvents (FIG. 6).
Highly viscous solvents, including glycerol and polyethylene glycol (PEG 200) induced higher fluorescence of 6, likely by restricting bond rotation and thus suppressing formation of a non-emissive, twisted intramolecular charge transfer (TICT) state.^[50]
Photophysical Measurements. Stock solutions (1-10 mM) of investigated compounds were prepared in DMSO and stored at −20° C. DMSO concentrations were less than 1% after dilution into the respective solvent/aqueous buffer. Measurements were collected on a SpectraMax M5 plate reader (Molecular Devices, Sunnyvale, CA, USA) in 1 cm path-length quartz cuvettes. Quantum yields were obtained by excitation at 488 nm using Rhodamine 6G ((=0.94) in EtOH (n=1.3624) as a fluorescent standard.^[1] Quantum yields were calculated using the equation I: […]

Hela cells = assay: Pulse-chase labeling with EdU; format: cell-based; conditions: 20 μM VdU 16 h, 1 μM PINK 4 h, 10 μM EdU 4 h
Protocol: To investigate the potential impact of VdU-PINK labeling on subsequent DNA synthesis, a pulse-chase experiment was performed with 5-ethynyl-2′-deoxyuridine (EdU) (FIG. 14, a). Hela cells were grown in cell media containing 20 μM VdU for 16 h, aspirated, treated with 1 μM PINK for 4 h, aspirated and treated with 10 μM EdU for 4 h. After fixation and DNA denaturation, cells were stained with AF488-azide (488 nm laser; emission 495-540 nm), and total cellular DNA was counterstained with Hoechst 33342 (405 nm laser; emission 410-480 nm). The “No VdU” cells were incubated with 1 μM PINK but not VdU. PINK+ and EdU+ “double positive” cells were observed as having co-localized nuclear staining. […] Therefore, VdU and PINK were used to track DNA synthesis and cellular division using live-cell, time-lapsed imaging. For optimal live-cell visualization, cells were incubated with 100 µM VdU for 23 h and subsequently labeled with 1 μM PINK for 4 h prior to imaging, allowing for the recording of full mitotic cycles over 2.5 hours (FIG. 14, b). Live cell images were acquired using a confocal microscope equipped with a stage-top incubator at 37° C. and at 5% CO2.
Pulse-Chase Labeling. In each well of a 24-well plate, one 10 mm diameter cover slide was placed. Hela cells were seeded at 1.2×10^5 cells per mL and allowed to settle overnight (22 h). […]

Jurkat cells [3] = assay: Resazurin single toxicity assay; format: cell-based; conditions: Homo sapiens, compound alone
Protocol: (§1) Resazurin assays were carried out to test the effectiveness of VdU, VdA and PINK alone in MV4-11 and Jurkat. The resazurin reduction assay is a colorimetric assay which allows to determine a cell's viability based on its metabolic activities.^26 When the cells are alive, the resazurin gets reduced by NADH into its resorufin form by cellular respiration, which is pink and highly fluorescent.^26 When the cells are dead or their metabolisms are impaired, the resazurin remains in its oxidized form, which is blue and has low fluorescence.^26 The cells can then be imaged using a spectrometer to determine how viable they are after each treatment.
(§2) Resazurin Single toxicity assay. MV4-11 and Jurkat cells were seeded in 96-well plates at a density of 20 000 cells/well, in triplicates. The cells were treated with each nucleoside (VdU/VdA) alone diluted in fresh media in 1:4 serial dilutions (˜0.01% DMSO) at concentrations of 1000-0 μM. The cells were treated with PINK alone diluted in fresh media in 1:2 serial dilutions (˜1% DMSO) at concentration of 100-0 μM. The cells were then incubated for 24 h and 72h. 10 μL of 870 μM resazurin was added per well, and incubated for 2-5 hours. After incubation, the fluorescence intensity at 590 nm (excitation=560 nm) was measured using a SpectraMax M5 plate reader.

MV4-11 cells [4] = assay: Resazurin single toxicity assay; format: cell-based; conditions: Homo sapiens, compound alone
Protocol: as §1, §2

MV4-11 and Jurkat = assay: Resazurin single toxicity assay, summary over both cell lines; format: cell-based; conditions: Homo sapiens, after 24 h and 72h, read-out: IC50 summarised over both cell lines
Protocol: as §1
Overall, VdU presented itself as a good candidate for the combination therapy with PINK due to its low toxicity in the two leukemia cell lines.
as §2

Jurkat cells [5] = assay: Resazurin combination toxicity assay; format: cell-based; conditions: Homo sapiens
Protocol: (§3) From the single toxicity experiment, it was determined that the optimal subtoxic concentration of PINK to be used for the combination toxicity assays would be 1 μM. To test how effective the vinyl-nucleosides (VdU/VdA) in combination with PINK are at killing the cells compared to the vinyl-nucleosides alone, another resazurin reduction assay was carried out.
(§4) To determine if it is possible to treat the leukemia cells with the vinyl-nucleosides and PINK simultaneously, instead of adding them sequentially, another resazurin reduction assay using the same concentrations of each compound as in the previous combination experiment was carried out, where instead the vinyl-nucleosides and PINK were added on the same day instead of on two consecutive days.
(§5) Resazurin Combination toxicity assays. MV4-11, MOLM-13 and Jurkat cells were seeded in 96-well plates at a density of 20 000 cells/well, 25 000 cells/well and 30 000 cells/well, respectively, in triplicates. For the sequential addition, the cells were first treated with the nucleosides (VdU/VdA) diluted in fresh media in 1:4 serial dilutions (˜0.01% DMSO) at concentrations of 500-0 μM, and incubated overnight. 24h post nucleoside addition, the cells were treated with 1 μM PINK diluted in fresh media (˜1% DMSO), and incubated for 24-72h. The cells were treated with resazurin, incubated and measured, as described above. For the simultaneous addition, the cells were treated with nucleosides and PINK on the same day at the same concentrations as describes above, and incubated for 24-72h.

MV4-11 cells [6] = assay: Resazurin combination toxicity assay; format: cell-based; conditions: Homo sapiens
Protocol: as §3, §4, §5

MOLM-13 cells [7] = assay: Resazurin combination toxicity assay; format: cell-based, human; conditions: variable VdU/VdA alone or with 1 μM PINK added 24 h post nucleoside addition, read-out: IC50 value (48 h) for sequential addition
Protocol: as §3, §5

MOLM-13 cells [8] = assay: Cell counting assay (Trypan Blue); format: cell-based, human; conditions: MOLM-13, 5 μM nucleoside, 1 μM PINK
Protocol: To confirm the cytotoxicity results obtained from the resazurin assays, a cell counting assay was conducted using Trypan Blue. It is an azo dye allows to discriminate between viable cells and dead cells, since dead cells will take in the dye, while viable cells will remain white. 28 From the resazurin assays, and after some optimization based on cell sensitivity to the vinyl-nucleosides, it was determined that […] and 5 μM of vinyl-nucleosides alone and in combination with 1 μM of PINK were two interesting concentrations to explore in Jurkat, MV4-11, and MOLM-13 cells. Cells were incubated with 5 μM or 10 μM of each nucleoside overnight (Day 0), and 1 μM of PINK was added for the combinations and PINK alone 24h post nucleoside incubation (Day 1). The cells were counted every 24h.
Cell Counting Assay. Jurkat, MV4-11 and MOLM-13 cells were seeded in 12-well plates at a density of 500 000 cells/mL, 175 000 cells/mL and 375 000 cells/mL, respectively, in duplicates. The cells were incubated overnight in fresh media containing 10 μM (Jurkat) or 5 μM (MV4-11 and MOLM-13) of each nucleoside (˜0.01% DMSO). 24h post nucleoside addition, 1 μM of PINK (˜0.01% DMSO) were added to the respective wells and incubated for 24 h. The cells were counted using a cell counter (BIO RAD TC20) to determine the percentage of viable cells and the cell concentration. The cells were counted every 24h using Trypan Blue in a 1:1 ratio.

[9] = 48 h, variable VdU/VdA alone or with 1 μM PINK added on the same day, read-out: IC50 value (48 h) for simultaneous addition
[10] = variable VdU/VdA alone or with 1 μM PINK added 24 h post nucleoside addition, read-out: IC50 value (48 h) for sequential addition

λmax(Abs) ([1]; MeCN): 498 nm
φ ([1]; MeCN): 0.0075
λmax(Fluor.) ([1]; MeCN): 525 nm
λmax(Abs) ([1]; PBS): 500 nm
φ ([1]; PBS): 0.0148
λmax(Fluor.) ([1]; PBS): 525 nm
λmax(Abs) ([1]; Water): 500 nm
φ ([1]; Water): 0.0063
λmax(Fluor.) ([1]; Water): 525 nm
SMILES: CN(C)c1ccc2cc3ccc(N(C)C)cc3[n+](CCCc3nnc(-c4ccccn4)nn3)c2c1 [AO-495-tet-py, (10-(6-(pyridin-2-yl)-1,2,4,5-tetrazin-3-yl)propyl)-3,6-bis(dimethylamino)acridinium trifluoroacetate)]

quantum yield (φF) [2]: 3.5-19%
SMILES: Cc1cc(-c2cn([C@H]3C[C@H](O)[C@@H](CO)O3)c(=O)[nH]c2=O)c(-c2ccc3cc4ccc(N(C)C)cc4nc3c2)nn1 [PINK-VdU-ox]
impact of VdU-PINK labeling on subsequent DNA synthesis / cell cycle (Hela cells): did not cause cell cycle arrest

SMILES: C=Cc1cn([C@H]2C[C@H](O)[C@@H](CO)O2)c2ncnc(N)c12 [VdA, 7-vinyl-7-deaza-2′-deoxyadenosine]
IC50 (Jurkat cells [3]; 24 h incubation, read-out: IC50 value (24 h)): 68 µM
IC50 (Jurkat cells [3]; 72 h incubation, read-out: IC50 value (72 h)): 46 µM
IC50 (MV4-11 cells [4]; MV4-11, 24 h incubation, read-out: IC50 value (24 h)): 32 µM
IC50 (MV4-11 cells [4]; MV4-11, 72 h incubation, read-out: IC50 value (72 h)): 58 µM
IC50 (MV4-11 and Jurkat): ~50 µM
IC50 (Jurkat cells [5]; [9]): 72 µM
IC50 (Jurkat cells [5]; [10]): 46 µM
IC50 (MV4-11 cells [6]; [9]): 37 µM
IC50 (MV4-11 cells [6]; [10]): 25 µM
IC50 (MOLM-13 cells [7]; Homo sapiens, MOLM-13, MOLM-13): 3 µM
IC50 (MOLM-13 cells [7]; MOLM-13): 2.6 µM
cell concentration (cell growth) (MOLM-13 cells [8]): seem to inhibit cell growth
